The record followed here is patent US20260152395A1, “SUSTAINED-RELEASE CHLORINE DIOXIDE GAS […] AND METHOD” (ABC MEDICAL CO., LTD., priority 2022, published 2026).

A short description of the data set: Chlorine dioxide generation test 1: organic substance added to sodium chlorite solution, reactivity observed. On the set-up: key: high reaction rate (+++++) resulted in the initiation of chlorine dioxide gas generation relatively quickly within several hours to several days after the addition; intermediate reaction rate (+++) resulted in the initiation of chlorine dioxide gas generation within several days to several tens of days after the addition; The reaction initiation time of the organic substances with a slow reaction rate (+) is hard to specify. The format is physicochemical. The settings on record: organic substance added to 23% aqueous sodium chlorite; room temperature and refrigerated temperature. Here is the method: To investigate the reactivity with and the risk of sodium chlorite depending on the type of organic substance, each of organic substances in Table 1 was added to a 23% aqueous solution of sodium chlorite to observe the reactivity at room temperature and refrigerated temperature.
For the compound `[Cl-].[Na+]` [Salt], the Reaction rate result is “No reaction”.
Turning to `[K+].[OH-]` [Potassium hydroxide], the Reaction rate entry is “No reaction”.
`O=C(CO)[C@@H](O)[C@H](O)[C@H](O)CO` [Fructose]: the Reaction rate entry is “+++”.
On to `O=C1NS(=O)(=O)c2ccccc21.[Na]` [Sodium saccharin], for which the Reaction rate entry was “+++”.
Turning to `OCC(O)CO` [Glycerol], the Reaction rate entry is on record as “+++++”.
Next, `CCO` [Ethanol]: “+++++”; `OC[C@H]1O[C@@](CO)(O[C@H]2O[C@H](CO)[C@@H](O)[C@H](O)[C@H]2O)[C@@H](O)[C@@H]1O` [Sucrose]: “+++”.
Next, `N[C@@H](CCC(=O)[O-])C(=O)[O-].[Na+].[Na+]` [Sodium glutamate]: “+++++”; `[O]=[Ca]` [Calcium oxide]: “No reaction”; `OC[C@@H](O)[C@@H](O)[C@H](O)[C@@H](O)CO` [Sorbitol]: “+++”.
With `OC[C@H]1O[C@H](O[C@H]2O[C@H](CO)[C@@H](O)[C@H](O)[C@H]2O)[C@H](O)[C@@H](O)[C@@H]1O` [Trehalose], the Reaction rate result is reported as “+++”.
Next, `[Na+].[OH-]` [Sodium hydroxide]: “No reaction”; `[Ca+2].[OH-].[OH-]` [Calcium hydroxide]: “No reaction”; `O=C([O-])[O-].[Na+].[Na+]` [Sodium carbonate]: “+”.
Turning to `OO` [Hydrogen peroxide], the Reaction rate result is reported as “No reaction”.
